This assay deals with PANC-1 cells. Description: cell viability assay in PANC-1 cells (compound alone, + 100 ng/ml TNFa, + 300 ng/ml TRAIL). Type of assay: cell-based.
The mark [1] stands for this setting: Homo sapiens, PANC-1, compound alone, Tables 6-10, read-out: IC50 (μM) in cell viability assay in PANC-1 cells: Compound alone.
[2] abbreviates: with 100 ng/ml TNFa, Tables 6-10, read-out: IC50 (μM) in cell viability assay in PANC-1 cells: Compound + 100 ng/ml TNFa.
Where [3] appears, read: with 300 ng/ml TRAIL, Tables 6-10, read-out: IC50 (μM) in cell viability assay in PANC-1 cells: Compound + 300 ng/ml TRAIL.
Where [4] appears, read: compound alone, Tables 6-10, read-out: IC50 (μM) in cell viability assay in PANC-1 cells: Compound alone.
Where [5] appears, read: Homo sapiens, PANC-1, compound alone, Tables 15-18, read-out: IC50 (uM) in cell viability assay in PANC-1 cells: Cmpnd alone.
The mark [6] stands for this setting: with 100 ng/ml TNFa, Tables 15-18, read-out: IC50 (uM) in cell viability assay in PANC-1 cells: Cmpnd + 100 ng/ml TNFa.
Where [7] appears, read: with 300 ng/ml TRAIL, Tables 15-18, read-out: IC50 (uM) in cell viability assay in PANC-1 cells: Cmpnd + 300 ng/ml TRAIL.

Molecules are shown by their SMILES. Read-outs that look alike come from different tables or passages of the source.

Turning to `CN[C@@H](C)C(=O)NC(C(=O)N1C[C@@H](NC(=O)c2cccc(C(=O)N[C@H]3CC(C(=O)N[C@H](C)c4cccc5ccccc45)N(C(=O)[C@@H](NC(=O)[C@H](C)NC)C(C)(C)C)C3)c2)CC1C(=O)NC(C)c1cccc2ccccc12)C(C)(C)C` (stereo partly drawn) [Compound 41], the IC50 under setting [1] was above 1 µM, the IC50 under setting [2] amounted to 0.452 µM and the IC50 under setting [3] came out at 0.434 µM.

For the compound `CN[C@@H](C)C(=O)N[C@H](C(=O)N1C[C@@H](n2cc(CCC(=O)N[C@@H]3CC(C(=O)N[C@H](C)c4ccccc4)N(C(=O)C(NC(=O)[C@H](CO)NC)C(C)(C)C)C3)nn2)C[C@H]1C(=O)N[C@@H]1CCCc2ccccc21)C(C)(C)C` (stereo partly drawn) [Compound 205], the IC50 was above 1 µM under setting [1], 0.04 µM under setting [2] and 0.059 µM under setting [3].

As to `CN[C@@H](C)C(=O)N[C@H](C(=O)N1C[C@@H](NC(=O)c2cccc(C(=O)N[C@H]3C[C@@H](C(=O)N[C@@H]4CCCc5ccc(Br)cc54)N(C(=O)[C@@H](NC(=O)[C@H](C)NC)C(C)(C)C)C3)c2)C[C@H]1C(=O)N[C@@H]1CCCc2ccc(Br)cc21)C(C)(C)C` (single isomer, unassigned) [Compound 63], the IC50 was above 1 µM under setting [4], 0.143 µM under setting [2] and 0.162 µM under setting [3].

With `CN[C@@H](C)C(=O)N[C@@H](Cc1ccc(NC(=O)Nc2ccc(C[C@H](NC(=O)[C@H](C)NC)C(=O)N3CCC[C@H]3C(=O)N[C@@H]3CCCc4ccccc43)cc2)cc1)C(=O)N1CCC[C@H]1C(=O)N[C@@H]1CCCc2ccccc21` [Compound P2-38], the IC50 runs as follows: under setting [5], above 1 µM; under setting [6], 0.021 µM; under setting [7], 0.037 µM.

As to `CN[C@@H](C)C(=O)NC(C(=O)N[C@@H](CCC(=O)NCCc1cn([C@H]2C[C@@H](C(=O)N[C@@H]3CCCc4ccccc43)N(C(=O)[C@@H](NC(=O)[C@H](C)NC)C(C)(C)C)C2)nn1)C(=O)N[C@H](C)C(C)C)C(C)C` (stereo partly drawn) [Compound 203], the IC50 under setting [1] was above 1 µM, the IC50 under setting [2] is 0.683 µM and the IC50 under setting [3] worked out at 0.616 µM.

Consider `CC[C@@H](NC(=O)[C@@H]1C[C@H](NC(=O)c2cccc(C(=O)N[C@H]3C[C@@H](C(=O)N[C@H](CC)c4ccccc4)N(C(=O)[C@@H](NC(=O)[C@H](C)NC)C(C)(C)C)C3)c2)CN1C(=O)[C@@H](NC(=O)[C@H](C)NC)C(C)(C)C)c1ccccc1` [Compound 1], for which the IC50 runs as follows: under setting [1], above 1 µM; under setting [2], 0.0023 µM; under setting [3], 0.0019 µM.

With `CN[C@@H](C)C(=O)N[C@H](C(=O)N1C[C@@H](NC(=O)c2cccc(C(=O)N[C@H]3C[C@@H](C(=O)NCc4ccc(OC)c(O)c4)N(C(=O)[C@@H](NC(=O)[C@H](C)NC)C(C)(C)C)C3)c2)C[C@H]1C(=O)NCc1ccc(OC)c(O)c1)C(C)(C)C` [Compound 5], the IC50 runs as follows: under setting [1], above 1 µM; under setting [2], 0.706 µM; under setting [3], 0.982 µM.

For the compound `CN[C@@H](C)C(=O)N[C@@H](CCCCCC[C@H](NC(=O)[C@H](C)NC)C(=O)N1CCC[C@H]1CNC(=O)c1cnccn1)C(=O)N1CCC[C@H]1CNC(=O)c1cnccn1` [Compound 30], the IC50 under setting [1] was above 1 µM, the IC50 under setting [2] is above 1 µM and the IC50 under setting [3] was above 1 µM.

Regarding `CN[C@@H](C)C(=O)NC(C(=O)N[C@@H](CCC(=O)NCc1cn([C@H]2C[C@@H](C(=O)N[C@@H]3CCCc4ccccc43)N(C(=O)[C@@H](NC(=O)[C@H](C)NC)C(C)(C)C)C2)nn1)C(=O)N[C@H](C)C(C)C)C(C)C` (stereo partly drawn) [Compound 202], the IC50 is, setting by setting: under setting [1], above 1 µM; under setting [2], 0.679 µM; under setting [3], 0.674 µM.

Consider `CN[C@@H](C)C(=O)N[C@H](C(=O)N[C@@H](CCNC(=O)c1cccc(C(=O)N[C@H]2C[C@@H](C(=O)N[C@@H]3CCCc4ccccc43)N(C(=O)[C@@H](NC(=O)[C@H](C)NC)C(C)(C)C)C2)c1)C(=O)N[C@@H]1CCCc2ccccc21)C(C)C` [Compound 170], for which the IC50 was above 1 µM under setting [1], 0.015 µM under setting [2] and 0.015 µM under setting [3].

`CN[C@@H](C)C(=O)N[C@@H](CCCCCC[C@H](NC(=O)[C@H](C)NC)C(=O)N1CC(F)(F)C[C@H]1C(=O)N[C@@H]1CCCc2ccccc21)C(=O)N1CC(F)(F)C[C@H]1C(=O)N[C@@H]1CCCc2ccccc21` [Compound 109]: the IC50 is above 1 µM under setting [1], 0.004 µM under setting [2] and 0.003 µM under setting [3].

As to `CN[C@@H](C)C(=O)N[C@H](C(=O)N1C[C@@H](NC(=O)c2cccc(C(=O)N[C@H]3C[C@@H](C(=O)NC4CCCc5c(OC)cccc54)N(C(=O)[C@@H](NC(=O)[C@H](C)NC)C(C)(C)C)C3)c2)C[C@H]1C(=O)NC1CCCc2c(OC)cccc21)C(C)(C)C` (single isomer, unassigned) [Compound 47], the IC50 by setting is: under setting [4], above 1 µM; under setting [2], 0.012 µM; under setting [3], 0.011 µM.

As to `CN[C@@H](C)C(=O)N[C@H](C(=O)N1CCC[C@H]1CN(CCCCCCN(CCc1ccccc1)C[C@@H]1CCCN1C(=O)[C@@H](NC(=O)[C@H](C)NC)C(C)(C)C)CCc1ccccc1)C(C)(C)C` [Compound P4-22], the IC50 under setting [5] is above 1 µM, the IC50 under setting [6] was determined as 0.022 µM and the IC50 under setting [7] turned out to be 0.04 µM.

As to `CN[C@@H](C)C(=O)N[C@H](C(=O)N1CCC[C@H]1CN1CCC[C@H]1C(c1ccccc1)c1ccccc1)[C@@H](C)OCCCCCCO[C@H](C)[C@H](NC(=O)[C@H](C)NC)C(=O)N1CCC[C@H]1CN1CCC[C@H]1C(c1ccccc1)c1ccccc1` [Compound 83], the IC50 reads like this: under setting [1], above 1 µM; under setting [2], 0.494 µM; under setting [3], 0.437 µM.

Take `C[C@H](N)C(=O)N[C@H](C(=O)N1C[C@@H](NC(=O)c2cccc(C(=O)N[C@H]3C[C@@H](C(=O)N[C@H]4CCCc5ccccc54)N(C(=O)[C@@H](NC(=O)[C@H](C)N)C(C)(C)C)C3)c2)C[C@H]1C(=O)N[C@H]1CCCc2ccccc21)C(C)(C)C` [Compound P3-106]: the IC50 (Homo sapiens, PANC-1 cells, compound alone, read-out: IC50 (uM) in cell viability assay in PANC-1 cells, Cmpnd alone) was above 1 µM; the IC50 (PANC-1 cells, + 100 ng/ml TNFa, read-out: IC50 (uM) in cell viability assay in PANC-1 cells, Cmpnd + 100 ng/ml TNFa) is 0.193 µM; the IC50 (PANC-1 cells, + 300 ng/ml TRAIL, read-out: IC50 (uM) in cell viability assay in PANC-1 cells, Cmpnd + 300 ng/ml TRAIL) is 0.115 µM.

As to `CN[C@@H](C)C(=O)NC(C(=O)N1C[C@@H](NC(=O)c2cccc(C(=O)N[C@H]3CC(C(=O)N[C@H](CO)Cc4ccccc4)N(C(=O)[C@@H](NC(=O)[C@H](C)NC)C(C)(C)C)C3)c2)CC1C(=O)N[C@H](CO)Cc1ccccc1)C(C)(C)C` (stereo partly drawn) [Compound 43], the IC50 by setting is: under setting [1], above 1 µM; under setting [2], 0.05 µM; under setting [3], 0.048 µM.

For the compound `CN[C@@H](C)C(=O)N[C@H](C(=O)N1CCC[C@H]1C(=O)N[C@H]1c2ccccc2C[C@@H]1NC(=O)c1ccc(C(=O)N[C@H]2Cc3ccccc3[C@@H]2NC(=O)[C@@H]2CCCN2C(=O)[C@@H](NC(=O)[C@H](C)NC)C(C)(C)C)cc1)C(C)(C)C` [Compound 124], the IC50 is above 1 µM under setting [1], 0.061 µM under setting [2] and 0.066 µM under setting [3].

Regarding `CCC1(NC(=O)[C@@H]2C[C@H](NC(=O)c3cccc(C(=O)N[C@H]4C[C@@H](C(=O)NC5(CC)CCCc6ccccc65)N(C(=O)[C@@H](NC(=O)[C@H](C)NC)C(C)(C)C)C4)c3)CN2C(=O)[C@@H](NC(=O)[C@H](C)NC)C(C)(C)C)CCCc2ccccc21` (stereo partly drawn) [Compound 51], the IC50 by setting is: under setting [4], above 1 µM; under setting [2], 0.104 µM; under setting [3], 0.081 µM.

As to `CN[C@@H](C)C(=O)N[C@H](C(=O)N1C[C@@H](NC(=O)c2cccc(C(=O)N[C@H]3C[C@@H](C(=O)N[C@@H]4CCCc5c(O)cccc54)N(C(=O)[C@@H](NC(=O)[C@H](C)NC)C(C)(C)C)C3)c2)C[C@H]1C(=O)N[C@@H]1CCCc2c(O)cccc21)C(C)(C)C` (single isomer, unassigned) [Compound 60], the IC50 runs as follows: under setting [1], above 1 µM; under setting [2], 0.044 µM; under setting [3], 0.049 µM.

Consider `CN[C@@H](C)C(=O)N[C@@H](CCCCCC[C@H](NC(=O)[C@H](C)NC)C(=O)N1CCCC[C@H]1C(=O)N[C@@H]1CCCc2ccccc21)C(=O)N1CCCC[C@H]1C(=O)N[C@@H]1CCCc2ccccc21` [Compound 94], for which the IC50 under setting [1] was above 1 µM, the IC50 under setting [2] turned out to be 0.014 µM and the IC50 under setting [3] was 0.049 µM.

Take `CN[C@@H](C)C(=O)N[C@@H](CC(=O)NCC[C@H](NC(=O)[C@@H](NC(=O)[C@H](C)NC)C(C)(C)C)C(=O)N[C@@H]1CCCc2ccccc21)C(=O)N1CCC[C@H]1C(=O)N[C@@H]1CCCc2ccccc21` [Compound 200]: the IC50 is above 1 µM under setting [1], 0.046 µM under setting [2] and 0.084 µM under setting [3].

With `CN[C@@H](C)C(=O)N[C@H](C(=O)N1C[C@@H](NC(=O)c2cccc(C(=O)N[C@H]3C[C@@H](C(=O)NC4CCCc5cccc(F)c54)N(C(=O)[C@@H](NC(=O)[C@H](C)NC)C(C)(C)C)C3)c2)C[C@H]1C(=O)NC1CCCc2cccc(F)c21)C(C)(C)C` (single isomer, unassigned) [Compound 71], the IC50 by setting is: under setting [4], above 1 µM; under setting [2], 0.005 µM; under setting [3], 0.0091 µM.

For the compound `CC[C@@H](NC(=O)[C@@H]1C[C@H](NC(=O)c2cccc(C(=O)N[C@H]3C[C@@H](C(=O)N[C@H](CC)c4ccccc4)N(C(=O)[C@@H](NC(=O)[C@H](C)NC)C(C)(C)C)C3)c2)CN1C(=O)[C@@H](NC(=O)[C@H](C)NC)C(C)(C)C)c1ccccc1` [Compound 2], the IC50 runs as follows: under setting [4], above 1 µM; under setting [2], 0.062 µM; under setting [3], 0.054 µM.

Source of the values: patent US20130344026A1, “Dimeric Smac Mimetics” (priority 2009, published 2013).
